In patent publication US20230093099A1, “COMPOUNDS AND METHODS OF TREATING CANCERS” (CULLGEN (SHANGHAI), INC., priority 2019, published 2023):

Test system: RS4;11 cells
Experiment: Cell viability assay (CellTiter-Glo) in RS4;11 cells
Format: cell-based
Conditions: Homo sapiens, 72 h; RS4;11 ALL cells treated for three days; read-out: cell viability inhibition IC50
Method: Specific exemplary heterobifunctional compounds were first characterized using cell viability assays. RS4;11 ALL cells were treated with bifunctional degraders for three days. The IC50 values ranged from 2 nM to over 10 uM.
MV4;11, RS4;11, Kasumi-1, HEL and other cells were treated with NVP-BSK805, TG101209 or selected degraders for 3 days at indicated concentrations following a 3-fold serial dilution.
HEL, RS4;11, MV4;11, Kasumi-1 and other cells were cultured at 37° C. with 5% CO2 in RPMI 1640 or DMEM Medium supplemented with 10% fetal bovine serum. Cells were authenticated using the short tandem repeat (STR) assays. Mycoplasma test results were negative.
Cells were seeded at a density of 5000 cells per well in 96-well assay plates and treated with test compounds following a 8-point or 12-point 3-fold serial dilution. Three days later, cell viability was determined using the CellTiter-Glo assay kit according to the manufacturer's instructions. The dose-response curves were determined and IC50 values were calculated using the GraphPad Prism software following a nonlinear regression (least squares fit) method.

IC50	Compound
< 0.1 µM	O=C1CCC(N2C(=O)c3ccc(NCCCCCCC(=O)N4CCC(n5cc(-c6cnc7cccc(-c8cc(F)c(CN9CCOCC9)c(F)c8)c7n6)cn5)CC4)cc3C2=O)C(=O)N1 (centres unmarked) [JA-188, 5-((7-(4-(4-(8-(3,5-difluoro-4-(morpholinomethyl)phenyl)quinoxalin-2-yl)-1H-pyrazol-1-yl)piperidin-1-yl)-7-oxoheptyl)amino)-2-(2,6-dioxopiperidin-3-yl)isoindoline-1,3-dione]

Same assay, conditions: Homo sapiens, 72 h; RS4;11 cells; cell viability, 3 days, CellTiter-Glo; read-out: IC50

IC50	Compound
4.59 µM	Cc1ncsc1-c1ccc(CNC(=O)[C@@H]2C[C@@H](O)CN2C(=O)[C@@H](NC(=O)COCCOCC(=O)N2CCN(c3ccc(Nc4nc5cccc(-c6ccc(S(C)(=O)=O)cc6)n5n4)cc3)CC2)C(C)(C)C)cc1 [JA-073, (2S,4R)-1-((S)-3,3-Dimethyl-2-(2-(2-(2-(4-(4-((5-(4-(methylsulfonyl)phenyl)-[1,2,4]triazolo[1,5-a]pyridin-2-yl)amino)phenyl)piperazin-1-yl)-2-oxoethoxy)ethoxy)acetamido)butanoyl)-4-hydroxy-N-(4-(4-methylthiazol-5-yl)benzyl)pyrrolidine-2-carboxamide]
0.0038 µM	O=C1CCC(N2Cc3ccc(CCCCCCC(=O)N4CCC(n5cc(-c6cnc7cccc(-c8cc(F)c(CN9CCOCC9)c(F)c8)c7n6)cn5)CC4)cc3C2=O)C(=O)N1 (centres unmarked) [JA-269, 3-(6-(7-(4-(4-(8-(3,5-difluoro-4-(morpholinomethyl)phenyl)quinoxalin-2-yl)-1H-pyrazol-1-yl)piperidin-1-yl)-7-oxoheptyl)-1-oxoisoindolin-2-yl)piperidine-2,6-dione]
1.41 µM	O=C(CN1CCC(n2cc(-c3cnc4cccc(-c5cc(F)c(CN6CCOCC6)c(F)c5)c4n3)cn2)CC1)NCCCNc1cccc2c1C(=O)N(C1CCC(=O)NC1=O)C2=O (centres unmarked) [JA-154, 2-(4-(4-(8-(3,5-Difluoro-4-(morpholinomethyl)phenyl)quinoxalin-2-yl)-1H-pyrazol-1-yl)piperidin-1-yl)-N-(3-((2-(2,6-dioxopiperidin-3-yl)-1,3-dioxoisoindolin-4-yl)amino)propyl)acetamide]
0.0697 µM	O=C1CCC(N2C(=O)c3ccc(NCCCCCCC(=O)N4CCC(n5cc(-c6cnc7cccc(-c8cc(F)c(CN9CCOCC9)c(F)c8)c7n6)cn5)CC4)cc3C2=O)C(=O)N1 (centres unmarked) [JA-188, 5-((7-(4-(4-(8-(3,5-difluoro-4-(morpholinomethyl)phenyl)quinoxalin-2-yl)-1H-pyrazol-1-yl)piperidin-1-yl)-7-oxoheptyl)amino)-2-(2,6-dioxopiperidin-3-yl)isoindoline-1,3-dione]
> 10 µM	CS(=O)(=O)c1ccc(-c2cccc3nc(Nc4ccc(N5CCN(CC(=O)NCCOCCOCCOCCNc6cccc7c6C(=O)N(C6CCC(=O)NC6=O)C7=O)CC5)cc4)nn23)cc1 (centres unmarked) [JA-127, N-(2-(2-(2-(2-((2-(2,6-Dioxopiperidin-3-yl)-1,3-dioxoisoindolin-4-yl)amino)ethoxy)ethoxy)ethoxy)ethyl)-2-(4-(4-((5-(4-(methylsulfonyl)phenyl)-[1,2,4]triazolo[1,5-a]pyridin-2-yl)amino)phenyl)piperazin-1-yl)acetamide]

Further lines, the compound ahead of its results:

Compound	IC50
Cc1cnc(Nc2ccc(N3CCN(C(=O)CCOCCNc4cccc5c4C(=O)N(C4CCC(=O)NC4=O)C5=O)CC3)cc2)nc1Nc1cccc(S(=O)(=O)NC(C)(C)C)c1 (centres unmarked) [JA-017, N-(tert-Butyl)-3-((2-((4-(4-(3-(2-((2-(2,6-dioxopiperidin-3-yl)-1,3-dioxoisoindolin-4-yl)amino)ethoxy)propanoyl)piperazin-1-yl)phenyl)amino)-5-methylpyrimidin-4-yl)amino)benzenesulfonamide]	> 10 µM
Cc1cnc(Nc2ccc(N3CCN(C(=O)CCCCCCCC(=O)N[C@H](C(=O)N4C[C@H](O)C[C@H]4C(=O)NCc4ccc(-c5scnc5C)cc4)C(C)(C)C)CC3)cc2)nc1Nc1cccc(S(=O)(=O)NC(C)(C)C)c1 [JA-027, (2S,4R)-1-((S)-2-(9-(4-(4-((4-((3-(N-(tert-Butyl)sulfamoyl)phenyl)amino)-5-methylpyrimidin-2-yl)amino)phenyl)piperazin-1-yl)-9-oxononanamido)-3,3-dimethylbutanoyl)-4-hydroxy-N-(4-(4-methylthiazol-5-yl)benzyl)pyrrolidine-2-carboxamide]	> 10 µM
Cc1ncsc1-c1ccc(CNC(=O)[C@@H]2C[C@@H](O)CN2C(=O)[C@@H](NC(=O)CCC(=O)N2CCN(c3ccc(Nc4nc5cccc(-c6ccc(S(C)(=O)=O)cc6)n5n4)cc3)CC2)C(C)(C)C)cc1 [JA-069, (2S,4R)-1-((S)-3,3-Dimethyl-2-(4-(4-(4-((5-(4-(methylsulfonyl)phenyl)-[1,2,4]triazolo[1,5-a]pyridin-2-yl)amino)phenyl)piperazin-1-yl)-4-oxobutanamido)butanoyl)-4-hydroxy-N-(4-(4-methylthiazol-5-yl)benzyl)pyrrolidine-2-carboxamide]	> 10 µM
Cc1cnc(Nc2ccc(N3CCN(C(=O)CCOCCOCCNc4ccc5c(c4)C(=O)N(C4CCC(=O)NC4=O)C5=O)CC3)cc2)nc1Nc1cccc(S(=O)(=O)NC(C)(C)C)c1 (centres unmarked) [JA-233, N-(tert-butyl)-3-((2-((4-(4-(3-(2-(2-((2-(2,6-dioxopiperidin-3-yl)-1,3-dioxoisoindolin-5-yl)amino)ethoxy)ethoxy)propanoyl)piperazin-1-yl)phenyl)amino)-5-methylpyrimidin-4-yl)amino)benzenesulfonamide]	0.287 µM
CS(=O)(=O)c1ccc(-c2cccc3nc(Nc4ccc(N5CCN(C(=O)CCOCCOCCOCCOCCOCCNc6cccc7c6C(=O)N(C6CCC(=O)NC6=O)C7=O)CC5)cc4)nn23)cc1 (centres unmarked) [JA-077, 2-(2,6-Dioxo-piperidin-3-yl)-4-(2-{2-[2-(2-{2-[3-(4-{4-[5-(4-methanesulfonyl-phenyl)-[1,2,4]triazolo[1,5-a]pyridin-2-ylamino]-phenyl}-piperazin-1-yl)-3-oxo-propoxy]-ethoxy}-ethoxy)-ethoxy]-ethoxy}-ethylamino)-isoindole-1,3-dione]	0.407 µM
Cc1ncsc1-c1ccc(CNC(=O)[C@@H]2C[C@@H](O)CN2C(=O)[C@@H](NC(=O)COCCOCCOCC(=O)N2CCC(n3cc(-c4cnc5cccc(-c6cc(F)c(CN7CCOCC7)c(F)c6)c5n4)cn3)CC2)C(C)(C)C)cc1 [JA-053, (2S,4R)-1-[(2S)-2-[[2-[2-[2-[2-[4-[4-[8-[3,5-Difluoro-4-(morpholinomethyl)phenyl]quinoxalin-2-yl]pyrazol-1-yl]-1-piperidyl]-2-oxo-ethoxy]ethoxy]ethoxy]acetyl]amino]-3,3-dimethyl-butanoyl]-4-hydroxy-N-[[4-(4-methylthiazol-5-yl)phenyl]methyl]pyrrolidine-2-carboxamide]	> 10 µM
Cc1ncsc1-c1ccc(CNC(=O)[C@@H]2C[C@@H](O)CN2C(=O)[C@@H](NC(=O)CCCCCCCC(=O)N2CCC(n3cc(-c4cnc5cccc(-c6cc(F)c(CN7CCOCC7)c(F)c6)c5n4)cn3)CC2)C(C)(C)C)cc1 [JA-051, (2S,4R)-1-[(2S)-2-[[9-[4-[4-[8-[3,5-Difluoro-4-(morpholinomethyl)phenyl]quinoxalin-2-yl]pyrazol-1-yl]-1-piperidyl]-9-oxo-nonanoyl]amino]-3,3-dimethyl-butanoyl]-4-hydroxy-N-[[4-(4-methylthiazol-5-yl)phenyl]methyl]pyrrolidine-2-carboxamide]	4.64 µM
Cc1cnc(Nc2ccc(N3CCN(CC(=O)NCCNc4ccc5c(c4)C(=O)N(C4CCC(=O)NC4=O)C5=O)CC3)cc2)nc1Nc1cccc(S(=O)(=O)NC(C)(C)C)c1 (centres unmarked) [JA-242, 2-(4-(4-((4-((3-(N-(tert-butyl)sulfamoyl)phenyl)amino)-5-methylpyrimidin-2-yl)amino)phenyl)piperazin-1-yl)-N-(2-((2-(2,6-dioxopiperidin-3-yl)-1,3-dioxoisoindolin-5-yl)amino)ethyl)acetamide]	0.543 µM
